Laboratory results from ChEMBL document CHEMBL5120890, “Untapped Pharmaceutical Potential of 4,5,4'-Trihydroxy-3,3'-dimethoxybibenzyl for Regulating Obesity: A Cell-Based Study with a Focus on Terminal Differentiation in Adipogenesis” (J Nat Prod, 2022).
Activity calls are given as the source filed them.

What was measured:
3T3-L1 [1] = assay: Down regulation of CDK2 protein expression in mouse 3T3-L1 cells at 0.5 to 5 uM after 18 hrs by western blot analysis; type: functional, cell-based; settings: dose 0.5-5 µM
3T3-L1 [2] = assay: Down regulation of CDK4 protein expression in mouse 3T3-L1 cells at 0.5 to 5 uM after 18 hrs by western blot analysis; type: functional, cell-based; settings: dose 0.5-5 µM
3T3-L1 [3] = assay: Upregulation of p27 protein expression in mouse 3T3-L1 cells at 0.5 to 5 uM after 18 hrs by western blot analysis; type: functional, cell-based; settings: dose 0.5-5 µM
3T3-L1 [4] = assay: Upregulation of p21 protein expression in mouse 3T3-L1 cells at 0.5 to 5 uM after 18 hrs by western blot analysis; type: functional, cell-based; settings: dose 0.5-5 µM
3T3-L1 [5] = assay: Upregulation of p18 protein expression in mouse 3T3-L1 cells at 0.5 to 5 uM after 18 hrs by western blot analysis; type: functional, cell-based; settings: dose 0.5-5 µM
3T3-L1 [6] = assay: Down regulation of SREBP1 protein expression in mouse 3T3-L1 cells at 0.5 to 5 uM after 48 hrs by western blot analysis; type: functional, cell-based; settings: dose 0.5-5 µM, DDE = dose-dependent effect
3T3-L1 [7] = assay: Down regulation of PPARG protein expression in mouse 3T3-L1 cells at 0.5 to 5 uM after 48 hrs by western blot analysis; type: functional, cell-based; settings: dose 0.5-5 µM, DDE = dose-dependent effect
3T3-L1 [8] = assay: Down regulation of C/EBpalpha protein expression in mouse 3T3-L1 cells at 0.5 to 5 uM after 48 hrs by western blot analysis; type: functional, cell-based; settings: dose 0.5-5 µM, DDE = dose-dependent effect
3T3-L1 [9] = assay: Down regulation of SREBP1 mRNA expression in mouse 3T3-L1 cells at 0.5 to 5 uM after 48 hrs by RT-qPCR analysis; type: functional, cell-based; settings: dose 0.5-5 µM, DDE = dose-dependent effect
3T3-L1 [10] = assay: Down regulation of PPARG mRNA expression in mouse 3T3-L1 cells at 0.5 to 5 uM after 48 hrs by RT-qPCR analysis; type: functional, cell-based; settings: dose 0.5-5 µM, DDE = dose-dependent effect
3T3-L1 [11] = assay: Down regulation of C/EBpalpha mRNA expression in mouse 3T3-L1 cells at 0.5 to 5 uM after 48 hrs by RT-qPCR analysis; type: functional, cell-based; settings: dose 0.5-5 µM, DDE = dose-dependent effect
3T3-L1 [12] = assay: Down regulation of PLIN1 protein expression in mouse 3T3-L1 cells in early differentiation at 0.5 to 5 uM after 8 days by western blot analysis; type: functional, cell-based; settings: dose 0.5-5 µM, time 8.0 day
3T3-L1 [13] = assay: Down regulation of LPL protein expression in mouse 3T3-L1 cells in early differentiation at 0.5 to 5 uM after 8 days by western blot analysis; type: functional, cell-based; settings: dose 0.5-5 µM, time 8.0 day
3T3-L1 [14] = assay: Down regulation of adiponectin protein expression in mouse 3T3-L1 cells in early differentiation at 0.5 to 5 uM after 8 days by western blot analysis; type: functional, cell-based; settings: dose 0.5-5 µM, time 8.0 day
3T3-L1 [15] = assay: Down regulation of FABP4 protein expression in mouse 3T3-L1 cells in early differentiation at 0.5 to 5 uM after 8 days by western blot analysis; type: functional, cell-based; settings: dose 0.5-5 µM, time 8.0 day
3T3-L1 [16] = assay: Down regulation of FAS protein expression in mouse 3T3-L1 cells in maturation at 0.5 to 5 uM after 10 days by western blot analysis; type: functional, cell-based; settings: dose 0.5-5 µM, time 10.0 day
3T3-L1 [17] = assay: Down regulation of PL1N1 protein expression in mouse 3T3-L1 cells in maturation at 0.5 to 5 uM after 10 days by western blot analysis; type: functional, cell-based; settings: dose 0.5-5 µM, time 10.0 day
3T3-L1 [18] = assay: Down regulation of LPL protein expression in mouse 3T3-L1 cells in maturation at 0.5 to 5 uM after 10 days by western blot analysis; type: functional, cell-based; settings: dose 0.5-5 µM, time 10.0 day
3T3-L1 [19] = assay: Down regulation of adiponectin protein expression in mouse 3T3-L1 cells in maturation at 0.5 to 5 uM after 10 days by western blot analysis; type: functional, cell-based; settings: dose 0.5-5 µM, time 10.0 day
3T3-L1 [20] = assay: Down regulation of FABP4 protein expression in mouse 3T3-L1 cells in maturation at 0.5 to 5 uM after 10 days by western blot analysis; type: functional, cell-based; settings: dose 0.5-5 µM, time 10.0 day
3T3-L1 [21] = assay: Down regulation of FAS mRNA expression in mouse 3T3-L1 cells in early differentiation at 0.5 to 5 uM after 8 days by RT-qPCR analysis; type: functional, cell-based; settings: dose 0.5-5 µM, time 8.0 day
3T3-L1 [22] = assay: Down regulation of PL1N1 mRNA expression in mouse 3T3-L1 cells in early differentiation at 0.5 to 5 uM after 8 days by RT-qPCR analysis; type: functional, cell-based; settings: dose 0.5-5 µM, time 8.0 day
3T3-L1 [23] = assay: Down regulation of LPL mRNA expression in mouse 3T3-L1 cells in early differentiation at 0.5 to 5 uM after 8 days by RT-qPCR analysis; type: functional, cell-based; settings: dose 0.5-5 µM, time 8.0 day
3T3-L1 [24] = assay: Down regulation of adiponectin mRNA expression in mouse 3T3-L1 cells in early differentiation at 0.5 to 5 uM after 8 days by RT-qPCR analysis; type: functional, cell-based; settings: dose 0.5-5 µM, time 8.0 day
3T3-L1 [25] = assay: Down regulation of FABP4 mRNA expression in mouse 3T3-L1 cells in early differentiation at 0.5 to 5 uM after 8 days by RT-qPCR analysis; type: functional, cell-based; settings: dose 0.5-5 µM, time 8.0 day
3T3-L1 [26] = assay: Down regulation of FAS mRNA expression in mouse 3T3-L1 cells in maturation at 0.5 to 5 uM after 10 days by RT-qPCR analysis; type: functional, cell-based; settings: dose 0.5-5 µM, time 10.0 day
3T3-L1 [27] = assay: Down regulation of PL1N1 mRNA expression in mouse 3T3-L1 cells in maturation at 0.5 to 5 uM after 10 days by RT-qPCR analysis; type: functional, cell-based; settings: dose 0.5-5 µM, time 10.0 day
3T3-L1 [28] = assay: Down regulation of LPL mRNA expression in mouse 3T3-L1 cells in maturation at 0.5 to 5 uM after 10 days by RT-qPCR analysis; type: functional, cell-based; settings: dose 0.5-5 µM, time 10.0 day
3T3-L1 [29] = assay: Down regulation of adiponectin mRNA expression in mouse 3T3-L1 cells in maturation at 0.5 to 5 uM after 10 days by RT-qPCR analysis; type: functional, cell-based; settings: dose 0.5-5 µM, time 10.0 day
3T3-L1 [30] = assay: Down regulation of FABP4 mRNA expression in mouse 3T3-L1 cells in maturation at 0.5 to 5 uM after 10 days by RT-qPCR analysis; type: functional, cell-based; settings: dose 0.5-5 µM, time 10.0 day
[31] = biological target: RAC-alpha serine/threonine-protein kinase (Mus musculus) (UniProt P31750); assay: Inhibition of AKT in mouse 3T3-L1 cells assessed as reduction in AKT phosphorylation in early differentiation at 0.5 to 5 uM after 48 hrs by Western blot analysis; type: cell-based; settings: dose 0.5-5 µM
3T3-L1 [32] = assay: Activation of AMPK-ACC signalling pathway in mouse 3T3-L1 cells assessed as increase in ACC phosphorylation in early differentiation at 0.5 to 5 uM after 48 hrs by Western blot analysis; type: cell-based; settings: filed as activator, dose 0.5-5 µM
[33] = biological target: RAC-alpha serine/threonine-protein kinase (Mus musculus) (UniProt P31750); assay: Inhibition of AKT in mouse 3T3-L1 cells assessed as reduction in AKT phosphorylation in maturation at 0.5 to 5 uM after 48 hrs by Western blot analysis; type: cell-based; settings: dose 0.5-5 µM
3T3-L1 [34] = assay: Inhibition of AKT/GSK3beta signalling pathway in mouse 3T3-L1 cells assessed as reduction in GSK3beta phosphorylation in maturation at 0.5 to 5 uM after 48 hrs by Western blot analysis; type: cell-based; settings: dose 0.5-5 µM
[35] = biological target: T1, 5'-AMP-activated protein kinase (Mus musculus) (UniProt Q5EG47+Q8BRK8+Q6PAM0+O54950+Q91WG5+Q9R078+Q8BGM7); assay: Activation of AMPK in mouse 3T3-L1 cells assessed as increase in AMPKalpha phosphorylation in maturation at 0.5 to 5 uM after 48 hrs by Western blot analysis; type: cell-based; settings: filed as activator, dose 0.5-5 µM
[36] = biological target: T1, 5'-AMP-activated protein kinase (Mus musculus); assay: Activation of AMPK in mouse 3T3-L1 cells assessed as increase in AMPKbeta phosphorylation in maturation at 0.5 to 5 uM after 48 hrs by Western blot analysis; type: cell-based; settings: filed as activator, dose 0.5-5 µM
3T3-L1 [37] = assay: Activation of AMPK-ACC signalling pathway in mouse 3T3-L1 cells assessed as increase in ACC phosphorylation in maturation at 0.5 to 5 uM after 48 hrs by Western blot analysis; type: cell-based; settings: filed as activator, dose 0.5-5 µM

RAC-alpha serine/threonine-protein kinase (Mus musculus), sequence (P31750 whole entry): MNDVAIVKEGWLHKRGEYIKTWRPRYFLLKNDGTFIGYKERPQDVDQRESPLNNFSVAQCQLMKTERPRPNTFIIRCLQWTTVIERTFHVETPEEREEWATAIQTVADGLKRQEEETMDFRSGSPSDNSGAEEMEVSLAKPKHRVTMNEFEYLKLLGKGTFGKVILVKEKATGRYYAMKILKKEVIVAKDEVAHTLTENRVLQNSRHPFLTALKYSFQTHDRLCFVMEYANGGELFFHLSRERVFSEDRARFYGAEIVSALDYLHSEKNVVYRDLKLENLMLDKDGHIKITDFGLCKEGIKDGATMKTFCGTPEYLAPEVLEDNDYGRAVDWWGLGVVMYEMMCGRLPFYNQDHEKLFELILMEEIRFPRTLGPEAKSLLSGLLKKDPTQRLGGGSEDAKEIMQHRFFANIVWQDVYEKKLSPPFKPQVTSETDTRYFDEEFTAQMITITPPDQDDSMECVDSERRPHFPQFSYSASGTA

COc1cc(CCc2cc(O)c(O)c(OC)c2)ccc1O
active: Activity (3T3-L1 [1]) | Activity (3T3-L1 [2]) | Activity (3T3-L1 [3]) | Activity (3T3-L1 [4]) | Activity (3T3-L1 [5]) | Activity (3T3-L1 [6]) Dde | Activity (3T3-L1 [7]) Dde | Activity (3T3-L1 [8]) Dde | Activity (3T3-L1 [9]) Dde | Activity (3T3-L1 [10]) Dde | Activity (3T3-L1 [11]) Dde | Activity (3T3-L1 [12]) | Activity (3T3-L1 [13]) | Activity (3T3-L1 [14]) | Activity (3T3-L1 [15]) | Activity (3T3-L1 [16]) | Activity (3T3-L1 [17]) | Activity (3T3-L1 [18]) | Activity (3T3-L1 [19]) | Activity (3T3-L1 [20]) | Activity (3T3-L1 [21]) | Activity (3T3-L1 [22]) | Activity (3T3-L1 [23]) | Activity (3T3-L1 [24]) | Activity (3T3-L1 [25]) | Activity (3T3-L1 [26]) | Activity (3T3-L1 [27]) | Activity (3T3-L1 [28]) | Activity (3T3-L1 [29]) | Activity (3T3-L1 [30]) | inhibition [31] | Activity (3T3-L1 [32]) | inhibition [33] | inhibition (3T3-L1 [34]) | Activity [35] | Activity [36] | Activity (3T3-L1 [37])
